Experimental data: patent publication US8697689B2, “Indole and benzomorpholine derivatives as modulators of metabotropic glutamate receptors” (Janssen Pharmaceuticals, Inc., priority 2008, dated 2014)

How the values were obtained:
human mGluR2 receptor = biological target: T1, human mGluR2 receptor (Homo sapiens, UniProt Q14416); assay: [35S]GTPγS binding assay (PAM assay) using membranes from CHO cells transfected with the human mGluR2 receptor; type: biochemical; settings: in presence of mGluR2 agonist glutamate at a predetermined EC25 concentration; averages of duplicate values of 11-concentration response curves; error about 0.3 log-units; read-out: GTPgS-hR2 PAM pEC50 (converted)
T1 construct: expressed in transfected cells; host or cells: CHO cells
Source text: The compounds provided in the present invention are positive allosteric modulators of mGluR2. These compounds appear to potentiate glutamate responses by binding to an allosteric site other than the glutamate binding site. The response of mGluR2 to a concentration of glutamate is increased when compounds of Formula (I) are present. Compounds of Formula (I) are expected to have their effect substantially at mGluR2 by virtue of their ability to enhance the function of the receptor. The behaviour of positive allosteric modulators tested at mGluR2 using the [^35S]GTPγS binding assay method described below and which is suitable for the identification of such compounds, and more particularly the compounds according to Formula (I), are shown in Table 4.
The [^35S]GTPγS binding assay is a functional membrane-based assay used to study G-protein coupled receptor (GPCR) function whereby incorporation of a non-hydrolysable form of GTP, [^35S]GTPγS (guanosine 5′-triphosphate, labelled with […] ^35S), is measured. The G-protein α subunit catalyzes the exchange of guanosine 5′-diphosphate (GDP) by guanosine triphosphate (GTP) and on activation of the GPCR by an agonist, [^35S]GTPγS, becomes incorporated and cannot be cleaved to continue the exchange cycle (Harper (1998) Current Protocols in Pharmacology 2.6.1-10, John Wiley & Sons, Inc.). […] Here we describe the use of the [^35S]GTPγS binding assay using membranes from cells transfected with the human mGluR2 receptor and adapted from Schaffhauser et al ((2003) Molecular Pharmacology 4:798-810) for the detection of the positive allosteric modulation (PAM) properties of the compounds of this invention.
CHO-cells were cultured to pre-confluence and stimulated with 5 mM butyrate for 24 hours, prior to washing in PBS (phosphate-buffered saline), and then collection by scraping in homogenisation buffer (50 mM Tris-HCl buffer, pH 7.4, 4° C.). Cell lysates were homogenized briefly (15 s) using an ultra-turrax homogenizer. The homogenate was centrifuged at 23 500×g for 10 min. and the supernatant discarded. The pellet was resuspended in 5 mM Tris-HCl, pH 7.4 and centrifuged again (30 000×g, 20 min., 4° C.). The final pellet was resuspended in 50 mM HEPES, pH 7.4 and stored at −80° C. in appropriate aliquots before use. Protein concentration was determined by the Bradford method (Bio-Rad, USA) with bovine serum albumin as standard.
Measurement of mGluR2 positive allosteric modulatory activity of test compounds in membranes containing human mGluR2 was performed using frozen membranes that were thawed and briefly homogenised prior to pre-incubation in 96-well microplates (15 μg/assay well, 30 minutes, 30° C.) in assay buffer (50 mM HEPES pH 7.4, 100 mM NaCl, 3 mM MgCl2, 50 μM GDP, 10 μg/ml saponin) with increasing concentrations of positive allosteric modulator (from 0.3 nM to 50 μM) and either a minimal pre-determined concentration of glutamate (PAM assay), or no added glutamate. For the PAM assay, membranes were pre-incubated with glutamate at EC25 concentration, i.e. a concentration that gives 25% of the maximal response glutamate, and is in accordance to published data (Pin et al. (1999) Eur. J. Pharmacol. 375:277-294). After addition of [^35S]GTPγS (0.1 nM, f.c.) to achieve a total reaction volume of 200 μl, microplates were shaken briefly and further incubated to allow [^35S]GTPγS incorporation on activation (30 minutes, 30° C.). The reaction was stopped by rapid vacuum filtration over glass-fibre filter plates (Unifilter 96-well GF/B filter plates, Perkin-Elmer, Downers Grove, USA) microplate using a 96-well plate cell harvester (Filtermate, Perkin-Elmer, USA), and then by washing three times with 300 μl of ice-cold wash buffer (Na2PO4.2H2O 10 mM, NaH2PO4.H2O 10 mM, pH=7.4). […]

T1 sequence (Q14416 19-872): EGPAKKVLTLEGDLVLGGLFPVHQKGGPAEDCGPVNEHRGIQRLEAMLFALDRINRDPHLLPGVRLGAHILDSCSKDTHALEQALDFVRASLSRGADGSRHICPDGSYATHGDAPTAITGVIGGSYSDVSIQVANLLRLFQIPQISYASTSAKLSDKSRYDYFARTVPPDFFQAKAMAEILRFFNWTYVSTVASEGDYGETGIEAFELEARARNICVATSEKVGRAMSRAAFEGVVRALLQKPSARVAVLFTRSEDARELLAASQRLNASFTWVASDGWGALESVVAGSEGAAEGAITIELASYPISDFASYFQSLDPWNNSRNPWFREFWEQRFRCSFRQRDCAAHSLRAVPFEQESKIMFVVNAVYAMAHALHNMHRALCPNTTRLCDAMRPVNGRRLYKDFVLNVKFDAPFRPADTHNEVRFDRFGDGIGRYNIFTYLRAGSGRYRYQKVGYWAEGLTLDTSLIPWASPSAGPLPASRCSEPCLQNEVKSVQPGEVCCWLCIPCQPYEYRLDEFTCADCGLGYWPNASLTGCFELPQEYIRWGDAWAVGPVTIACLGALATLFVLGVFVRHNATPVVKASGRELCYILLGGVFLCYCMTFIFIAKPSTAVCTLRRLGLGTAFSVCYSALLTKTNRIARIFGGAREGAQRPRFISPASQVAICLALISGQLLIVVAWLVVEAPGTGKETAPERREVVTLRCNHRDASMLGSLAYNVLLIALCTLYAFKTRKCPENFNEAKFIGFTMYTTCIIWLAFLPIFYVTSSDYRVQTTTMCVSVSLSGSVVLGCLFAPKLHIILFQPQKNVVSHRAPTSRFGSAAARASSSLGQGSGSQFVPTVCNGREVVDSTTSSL

Row | SMILES | EC50 (human mGluR2 receptor) [nM] | melting point [°C]
1 | CCCCn1ccc(-c2ccc3c(ccn3[C@H]3CC[C@H](O)CC3)c2)c(Cl)c1=O [Compound 3, trans-1-Butyl-3-chloro-4-[1-(4-hydroxy-cyclohexyl)-1H-indol-5-yl]-1H-pyridin-2-one] | 102 | 
2 | CCCCn1ccc(-c2ccc3c(ccn3[C@H]3CC[C@](C)(O)CC3)c2)c(Cl)c1=O [Compound 5, trans-1-Butyl-3-chloro-4-[1-(4-hydroxy-4-methyl-cyclohexyl)-1H-indol-5-yl]-1H-pyridin-2-one] | 75.9 | 
3 | CCCCn1ccc(-c2ccc3c(ccn3[C@H]3CC[C@@](C)(O)CC3)c2)c(Cl)c1=O [Compound 6, cis-1-Butyl-3-chloro-4-[1-(4-hydroxy-4-methyl-cyclohexyl)-1H-indol-5-yl]-1H-pyridin-2-one] | 302 | 
4 | CC(C)CCn1ccc(-c2ccc3c(ccn3[C@H]3CC[C@H](O)CC3)c2)c(Cl)c1=O [Compound 7, trans-3-Chloro-4-[1-(4-hydroxy-cyclohexyl)-1H-indol-5-yl]-1-(3-methyl-butyl)-1H-pyridin-2-one] | 89.1 | 182.3
5 | O=c1c(Cl)c(-c2ccc3c(ccn3[C@H]3CC[C@H](O)CC3)c2)ccn1CC1CC1 [Compound 8, trans-3-Chloro-1-cyclopropylmethyl-4-[1-(4-hydroxy-cyclohexyl)-1H-indol-5-yl]-1H-pyridin-2-one] | 302 | 209.4

Other lines, results leading:

Row | EC50 (human mGluR2 receptor) [nM] | melting point [°C] | SMILES
6 | 589 |  | CCCCn1ccc(-c2ccc3c(c2)OCCN3C2CCOCC2)c(Cl)c1=O [Compound 1, 1-Butyl-3-chloro-4-[4-(tetrahydro-pyran-4-yl)-3,4-dihydro-2H-benzo[1,4]oxazin-7-yl]-1H-pyridin-2-one]
7 | 148 |  | CCCCn1ccc(-c2ccc3c(ccn3[C@H]3CC[C@@H](O)CC3)c2)c(Cl)c1=O [Compound 4, cis-1-Butyl-3-chloro-4-[1-(4-hydroxy-cyclohexyl)-1H-indol-5-yl]-1H-pyridin-2-one]
8 | 309 |  | CCCCn1ccc(-c2ccc3c(ccn3C3CCOCC3)c2)c(Cl)c1=O [Compound 9, 1-Butyl-3-chloro-4-[1-(tetrahydro-pyran-4-yl)-1H-indol-5-yl]-1H-pyridin-2-one]
